Reference: ChEMBL document CHEMBL1126486, “Stable isosteres of neurotensin c-terminal pentapeptides derived by modification of the amide function” (Bioorg Med Chem Lett, 1993)
Where a SMILES comes first, the peptide text is derived from it. [ ]: non-standard residue; d: D form. The star is where a group is joined. Adamantane1carbonyl = O=C(C12CC3CC(CC(C3)C1)C2)*; Orn = NCCC[C@H](N)C(=O)O; Boc = CC(C)(C)OC(=O)*

Key:
Mus musculus [1] = test: Antinociceptive activity was determined using the phenylquinone writhing assay by […] administration; format: functional
Mus musculus [2] = test: Antinociceptive activity was determined using the phenylquinone writhing assay by intravenous administration; format: functional
[3] = target: Neurotensin receptor type 1 (Rattus norvegicus, UniProt P20789); test: Neurotensin receptor binding affinity by displacement of [3H]- neurotensin
Neurotensin receptor type 1, sequence (P20789 whole entry): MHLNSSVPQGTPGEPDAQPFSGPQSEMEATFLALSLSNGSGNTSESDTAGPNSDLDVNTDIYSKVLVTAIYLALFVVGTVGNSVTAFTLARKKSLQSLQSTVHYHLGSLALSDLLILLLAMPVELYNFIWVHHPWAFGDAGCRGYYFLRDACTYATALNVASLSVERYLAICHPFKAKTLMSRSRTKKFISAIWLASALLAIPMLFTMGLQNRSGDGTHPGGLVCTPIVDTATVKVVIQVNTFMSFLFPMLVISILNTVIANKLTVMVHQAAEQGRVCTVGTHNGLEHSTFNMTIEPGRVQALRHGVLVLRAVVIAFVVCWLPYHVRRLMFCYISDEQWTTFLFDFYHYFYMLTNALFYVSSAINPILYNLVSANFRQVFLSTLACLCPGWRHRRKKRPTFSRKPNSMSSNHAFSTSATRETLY

| Molecule | Activity (Mus musculus [1]) [ug mouse-1] | Activity (Mus musculus [2]) [mg/kg] | Ki [3] [nM] |
| --- | --- | --- | --- |
| CC[C@H](C)[C@H](NC(=O)[C@H](Cc1ccc(O)cc1)N/C=C/C(=O)[C@@H]1CCCN1C(=O)[C@H](CCCCN)NC(=O)OC(C)(C)C)C(=O)N[C@@H](CC(C)C)C(=O)O | 22 | >27 | 1630 |
| CC[C@H](C)[C@H](NNCC(=O)[C@H](Cc1ccc(O)cc1)NC(=O)[C@@H]1CCCN1C(=O)[C@H](CCCN)NC(=O)OC(C)(C)C)C(=O)N[C@@H](CC(C)C)C(=O)O | 29 |  | > 10000 |
| CC[C@H](C)[C@H](NC(=O)[C@H](Cc1ccc(O)cc1)NNCC(=O)[C@@H]1CCCN1C(=O)[C@H](CCCCN)NC(=O)C12C[C@H]3C[C@@H](C1)C[C@@H](C2)C3)C(=O)N[C@@H](CC(C)C)C(=O)O | 4.5 | 20 | 1610 |
| CC[C@H](C)[C@H](NNCC(=O)[C@H](Cc1ccc(O)cc1)NC(=O)[C@@H]1CCCN1C(=O)[C@H](CCCCN)NC(=O)C12C[C@H]3C[C@@H](C1)C[C@@H](C2)C3)C(=O)N[C@@H](CC(C)C)C(=O)O | >50 |  | 5960 |
| CC[C@H](C)[C@H](NNCC(=O)[C@H](Cc1ccc(O)cc1)NC(=O)[C@@H]1CCCN1NCC(=O)[C@H](CCCCN)NC(=O)C12C[C@H]3C[C@@H](C1)C[C@@H](C2)C3)C(=O)N[C@@H](CC(C)C)C(=O)O | >50 |  | 3860 |
| CC[C@H](C)[C@H](NC(=O)[C@H](Cc1ccc(O)cc1)NNCC(=O)[C@@H]1CCCN1C(=O)[C@H](CCCN)NC(=O)OC(C)(C)C)C(=O)N[C@@H](CC(C)C)C(=O)O | 0.89 | 37 | 2980 |
| CC[C@H](C)[C@H](NC(=O)[C@H](Cc1ccc(O)cc1)NC(=O)[C@@H]1CCCN1C(=O)[C@H](CCCCN)NC(=O)C12CC3CC(CC(C3)C1)C2)C(=O)N[C@@H](CC(C)C)C(=O)O (Adamantane1carbonyl-KPYIL-OH) | 0.15 | 2.2 | 117 |
| CC[C@H](C)[C@H](NC(=O)[C@H](Cc1ccc(O)cc1)NC(=O)[C@@H]1CCCN1C(=O)[C@H](CCCCN)NC(=O)OC(C)(C)C)C(=O)N[C@@H](CC(C)C)C(=O)O (Boc-KPYIL-OH) | 0.018 | 3 | 63 |
| CC[C@H](C)[C@H](NC(=O)[C@H](Cc1ccc(O)cc1)NC(=O)[C@@H]1CCCN1C(=O)[C@H](CCCN)NC(=O)OC(C)(C)C)C(=O)N[C@@H](CC(C)C)C(=O)O (Boc-[Orn]PYIL-OH) | 0.00097 | 0.74 | 82 |
| H-KPYIL-OH | 5.9 | >81 | 688 |
